Source: PubChem BioAssay AID248 (DTP/NCI, 2004)
Where “and” joins values, the source holds several entries; their conditions need not be identical. Equal values may be shown once. Inconclusive results and toxic doses are left out. Rule as the data show it: active = T/C of 150% or more; inactive = T/C below 125%.

System: L1210 leukemia ip in BDF1 mice, survival T/C
Assay: NCI In Vivo Anticancer Drug Screen. Data for tumor model L1210 Leukemia (intraperitoneal) in B6D2F1 (BDF1) mice
Settings: endpoint: mean survival time, higher = longer survival
Summary of the method: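 In this screen, tumor-bearing mice given compound are compared to those given vehicle, and their survival values are reported as a treated-to-control quotient.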

[1] = dose: 100.0 mg/kg/injection, schedule: Q01DX001 (ip), vehicle: carboxymethylcellulose (CMC)
[2] = dose: 200.0 mg/kg/injection, schedule: Q01DX001 (ip), vehicle: carboxymethylcellulose (CMC)
[3] = dose: 400.0 mg/kg/injection, schedule: Q01DX001 (ip), vehicle: carboxymethylcellulose (CMC)
[4] = dose: 100.0 mg/kg/injection, schedule: Q01DX001 (ip), vehicle: saline
[5] = dose: 100.0 mg/kg/injection, schedule: Q04DX002 (ip), vehicle: saline
[6] = dose: 200.0 mg/kg/injection, schedule: Q01DX001 (ip), vehicle: saline
[7] = dose: 400.0 mg/kg/injection, schedule: Q01DX001 (ip), vehicle: saline
[8] = dose: 100.0 mg/kg/injection, schedule: Q01DX009 (ip), vehicle: saline with Tween-80
[9] = dose: 200.0 mg/kg/injection, schedule: Q01DX009 (ip), vehicle: saline with Tween-80

Measured: T/C

O=C1c2ccccc2-c2cccc3cccc1c23
inactive: dose: 50.0 mg/kg/injection, schedule: Q01DX001 (ip), vehicle: saline sonified 94 % of control | dose: 100.0 mg/kg/injection, schedule: Q01DX001 (ip), vehicle: saline sonified 95 % of control | dose: 100.0 mg/kg/injection, schedule: Q01DX009 (ip), vehicle: gum acacia 105 % of control | dose: 200.0 mg/kg/injection, schedule: Q01DX001 (ip), vehicle: saline sonified 97 % of control | dose: 200.0 mg/kg/injection, schedule: Q01DX009 (ip), vehicle: gum acacia 96 % of control | dose: 400.0 mg/kg/injection, schedule: Q01DX009 (ip), vehicle: gum acacia 102 % of control

CC(=O)c1cc(-c2ccccc2)nc2c(C)c(Cl)ccc12
inactive: [1] 90 % of control | [2] 92 % of control | [3] 90 % of control

SC1c2cc(Cl)ccc2-c2ccc(Cl)cc21
inactive: [1] 92 % of control | [2] 92 % of control | [3] 92 % of control

COC(=O)C[P+](c1ccccc1)(c1ccccc1)c1ccccc1
inactive: dose: 15.0 mg/kg/injection, schedule: Q01DX001 (ip), vehicle: saline 93 % of control | dose: 30.0 mg/kg/injection, schedule: Q01DX001 (ip), vehicle: saline 89 % of control | dose: 60.0 mg/kg/injection, schedule: Q01DX001 (ip), vehicle: saline 86 % of control

Cc1ccc(C(c2ccccc2)C(COS(C)(=O)=O)COS(C)(=O)=O)cc1 (stereo unspecified)
inactive: dose: 75.0 mg/kg/injection, schedule: Q04DX002 (ip), vehicle: Klucel (hydroxypropylcellulose) (HPC) 90 % of control | dose: 150.0 mg/kg/injection, schedule: Q04DX002 (ip), vehicle: Klucel (hydroxypropylcellulose) (HPC) 97 % of control | dose: 300.0 mg/kg/injection, schedule: Q04DX002 (ip), vehicle: Klucel (hydroxypropylcellulose) (HPC) 108 % of control

CC[C@H](CC[C@@H](C)[C@H]1CC[C@H]2[C@@H]3CC=C4C[C@@H](OC(=O)CN5CCNCC5)CC[C@]4(C)[C@H]3CC[C@]12C)C(C)C
inactive: dose: 100.0 mg/kg/injection, schedule: Q01DX001 (ip), vehicle: water 98 % of control | dose: 100.0 mg/kg/injection, schedule: Q01DX009 (ip), vehicle: water 105 % of control | dose: 100.0 mg/kg/injection, schedule: Q04DX003 (ip), vehicle: water 100 % of control | dose: 200.0 mg/kg/injection, schedule: Q01DX001 (ip), vehicle: water 98 % of control | dose: 200.0 mg/kg/injection, schedule: Q01DX009 (ip), vehicle: water 89 % of control | dose: 200.0 mg/kg/injection, schedule: Q04DX003 (ip), vehicle: water 100 % of control | dose: 400.0 mg/kg/injection, schedule: Q01DX001 (ip), vehicle: water 91 % of control | dose: 400.0 mg/kg/injection, schedule: Q04DX003 (ip), vehicle: water 98 % of control

COC(=O)C(OC(=O)n1ccnc1)(c1ccccc1)c1ccccc1
inactive: dose: 100.0 mg/kg/injection, schedule: Q04DX002 (ip), vehicle: gum acacia 112 % of control | dose: 200.0 mg/kg/injection, schedule: Q04DX002 (ip), vehicle: gum acacia 94 % of control | dose: 400.0 mg/kg/injection, schedule: Q04DX002 (ip), vehicle: gum acacia 97 % of control

CC(=O)Nc1ccc(Cl)c(Cl)c1
inactive: dose: 100.0 mg/kg/injection, schedule: Q04DX003 (ip), vehicle: Klucel (hydroxypropylcellulose) (HPC) 107 % of control | dose: 100.0 mg/kg/injection, schedule: Q04DX003 (ip), vehicle: other 101 % of control | dose: 200.0 mg/kg/injection, schedule: Q04DX003 (ip), vehicle: Klucel (hydroxypropylcellulose) (HPC) 114 % of control | dose: 200.0 mg/kg/injection, schedule: Q04DX003 (ip), vehicle: other 98 % of control | dose: 400.0 mg/kg/injection, schedule: Q04DX003 (ip), vehicle: Klucel (hydroxypropylcellulose) (HPC) 87 % of control | dose: 400.0 mg/kg/injection, schedule: Q04DX003 (ip), vehicle: other 101 % of control

CCOC(=O)Oc1ccc(Br)cc1Br
inactive: [4] 104 % of control | dose: 100.0 mg/kg/injection, schedule: Q01DX009 (ip), vehicle: carboxymethylcellulose (CMC) 93 % of control and 96 % of control | [5] 99 % of control | dose: 100.0 mg/kg/injection, schedule: Q04DX003 (ip), vehicle: saline 103 % of control | [6] 102 % of control | dose: 200.0 mg/kg/injection, schedule: Q01DX009 (ip), vehicle: carboxymethylcellulose (CMC) 94 % of control and 97 % of control | dose: 200.0 mg/kg/injection, schedule: Q04DX002 (ip), vehicle: saline 92 % of control | dose: 200.0 mg/kg/injection, schedule: Q04DX003 (ip), vehicle: saline 95 % of control | [7] 104 % of control | dose: 400.0 mg/kg/injection, schedule: Q01DX009 (ip), vehicle: carboxymethylcellulose (CMC) 92 % of control and 93 % of control | dose: 400.0 mg/kg/injection, schedule: Q04DX002 (ip), vehicle: saline 104 % of control | dose: 400.0 mg/kg/injection, schedule: Q04DX003 (ip), vehicle: saline 102 % of control

C[CH2][Pb]([CH2]C)([CH2]C)[O][As](=O)(O)c1ccc(N)cc1
inactive: dose: 0.75 mg/kg/injection, schedule: Q01DX009 (ip), vehicle: Klucel (hydroxypropylcellulose) (HPC) 98 % of control | dose: 1.5 mg/kg/injection, schedule: Q01DX009 (ip), vehicle: Klucel (hydroxypropylcellulose) (HPC) 102 % of control | dose: 1.5 mg/kg/injection, schedule: Q04DX003 (ip), vehicle: Klucel (hydroxypropylcellulose) (HPC) 96 % of control | dose: 3.0 mg/kg/injection, schedule: Q01DX009 (ip), vehicle: Klucel (hydroxypropylcellulose) (HPC) 96 % of control and 102 % of control | dose: 3.0 mg/kg/injection, schedule: Q04DX003 (ip), vehicle: Klucel (hydroxypropylcellulose) (HPC) 100 % of control | dose: 6.0 mg/kg/injection, schedule: Q04DX003 (ip), vehicle: Klucel (hydroxypropylcellulose) (HPC) 98 % of control

CCCCCOC(=O)Nc1ccc(S(=O)(=O)N(C)C)cc1
inactive: [4] 100 % of control | [6] 108 % of control | [7] 100 % of control

Cn1cccc1/C=N/O
inactive: dose: 100.0 mg/kg/injection, schedule: Q04DX002 (ip), vehicle: Klucel (hydroxypropylcellulose) (HPC) 98 % of control | dose: 200.0 mg/kg/injection, schedule: Q04DX002 (ip), vehicle: Klucel (hydroxypropylcellulose) (HPC) 98 % of control | dose: 400.0 mg/kg/injection, schedule: Q04DX002 (ip), vehicle: Klucel (hydroxypropylcellulose) (HPC) 117 % of control

OCCOC(c1ccccc1)(c1ccccc1)c1ccccc1
inactive: dose: 50.0 mg/kg/injection, schedule: Q01DX009 (ip), vehicle: saline with Tween-80 98 % of control | [8] 100 % of control | [9] 91 % of control

CCCCCCCCCCCCCCC(=O)N/N=C/c1ccc([N+](=O)[O-])s1
inactive: [8] 91 % of control | [9] 88 % of control | dose: 400.0 mg/kg/injection, schedule: Q01DX009 (ip), vehicle: saline with Tween-80 100 % of control

CCCOc1ccc(-c2nc(-c3ccc(N=Cc4ccc(N(CCOS(C)(=O)=O)CCOS(C)(=O)=O)cc4C)cc3)cs2)cc1
inactive: dose: 25.0 mg/kg/injection, schedule: Q01DX009 (ip), vehicle: Klucel (hydroxypropylcellulose) (HPC) 114 % of control | dose: 50.0 mg/kg/injection, schedule: Q01DX009 (ip), vehicle: Klucel (hydroxypropylcellulose) (HPC) 109 % of control | dose: 75.0 mg/kg/injection, schedule: Q01DX009 (ip), vehicle: Klucel (hydroxypropylcellulose) (HPC) 106 % of control | dose: 100.0 mg/kg/injection, schedule: Q01DX009 (ip), vehicle: Klucel (hydroxypropylcellulose) (HPC) 94 % of control

Nc1ncnc(N)c1NC(=O)c1ccc(OCCc2ccccc2)c(Cl)c1
inactive: dose: 100.0 mg/kg/injection, schedule: Q01DX001 (ip), vehicle: saline with Tween-80 106 % of control | dose: 200.0 mg/kg/injection, schedule: Q01DX001 (ip), vehicle: saline with Tween-80 96 % of control | dose: 400.0 mg/kg/injection, schedule: Q01DX001 (ip), vehicle: saline with Tween-80 102 % of control

CCCCCCC[As](=O)(O)CCCCCCC
inactive: dose: 50.0 mg/kg/injection, schedule: Q01DX001 (ip), vehicle: saline 106 % of control | [4] 103 % of control | [6] 101 % of control

CCCCCNCCC[P+](c1ccccc1)(c1ccccc1)c1ccccc1
inactive: dose: 25.0 mg/kg/injection, schedule: Q04DX002 (ip), vehicle: saline 98 % of control | dose: 50.0 mg/kg/injection, schedule: Q04DX002 (ip), vehicle: saline 105 % of control | [5] 119 % of control

CC1CCC(NC2=NCCO2)C1 (stereo unspecified)
inactive: dose: 100.0 mg/kg/injection, schedule: Q04DX003 (ip), vehicle: saline with Tween-80 96 % of control | dose: 200.0 mg/kg/injection, schedule: Q04DX003 (ip), vehicle: saline with Tween-80 93 % of control | dose: 400.0 mg/kg/injection, schedule: Q04DX003 (ip), vehicle: saline with Tween-80 93 % of control
